In patent US12312347B2, “Azaindole derivative and use thereof as FGFR and C-Met inhibitor” (Wuxi Life Fountain Biotech Co., Ltd, priority 2018, dated 2025):

Experiments:
[1] = Pharmacokinetic evaluation in mice (IV and PO); type: in vivo, male CD-1 mice; conditions: for AUC(0-t) / bioavailability / Cmax / Tmax / clearance / half-life / Vd: male, plasma; for bioavailability: PO 10 mg/kg vs IV 2 mg/kg, read-out: F (bioavailability); for Cmax: read-out: Cmax (peak concentration); for Tmax: read-out: Tmax (time to peak); for clearance: read-out: Cl (plasma clearance); for half-life: read-out: T1/2 (elimination half-life) (converted); for Vd: read-out: Vdss (steady-state apparent volume of distribution); for oral bioavailability (in words): oral administration
Method: Experimental Procedure: 0.4 mg/mL clear solution of the test compounds in a specific menstruum was injected intravenously into male CD-1 nude mice (overnight fasting, aged 7-9 weeks) via caudal vein at a dose of 2 mg/kg. About 30 μL of blood was collected from jugular or caudal vein at 0.0833, 0.25, 0.5, 1.0, 2.0, 4.0, 8.0 and 24 h after intravenous administration. […] About 30 μL of blood was collected from jugular or caudal vein of the male CD-1 mice at 0.0833, 0.25, 0.5, 1.0, 2.0, 4.0, 8.0 and 24 h after oral administration. The blood samples were added into anticoagulant tubes containing EDTA-K2, and then centrifuged to separate the plasma. LC-MS/MS method was used to determine the drug concentration in blood, and WinNonlin™ Version 6.3 (Pharsight, Mountain View, CA) pharmacokinetic software was used to calculate the relevant pharmacokinetic parameters by non-compartment model linear logarithmic trapezoidal method.
Note: Plasma clearance (Cl) mL/min/kg, steady-state apparent volume of distribution (Vdss) L/kg, elimination half-life (T1/2) and area under the plasma concentration curve from point 0 to the last measurable time point (AUC0-last), bioavailability F %, peak concentration (Cmax), time to peak Tmax

[2] = system: SNU-16 transplantation tumor model; assay: In vivo pharmacodynamic evaluation, SNU-16 gastric cancer transplantation tumor model; set-up: species or system nude mice; conditions: SNU-16 transplantation model
Method: Method of establishing SNU-16 gastric cancer model: SNU-16 cells in logarithmic growth phase were collected, and the cells were resuspended in 50% PBS (pH 7.4, 0.01 M) and 50% Matrigel after cell counting. The cell concentration was adjusted to 4×10^7 cells/mL; the cells were placed in an ice box, and the cell suspension was aspirated with a 1-mL syringe and subcutaneously injected into nude mice via the anterior right armpit. Each animal was inoculated with 200 μL (8×10^6 cells/each) to establish the SNU-16 transplantation tumor model. The animals were observed regularly, and the tumor diameters were measured using an electronic vernier caliper. The data were inputted an Excel spreadsheet to calculate the tumor volume and monitor the tumor growth. When the tumor volume reached 100-300 mm^3, mice bearing similar tumor volume and in good health condition were selected. Randomization method was used for animal grouping; the number of animals in each group was n=7, and the average tumor volume of each group was about 145 mm^3. After the experiment started, tumor diameters were measured and tumor volume was calculated twice a week, and the weight of animals was weighed and recorded.
Tumor growth inhibition (TGI) was used to analyze the tumor growth trend and evaluated by tumor volume over time. The long axis (L) and short axis (W) of the subcutaneous tumors were measured twice a week by a caliper, and the tumor volume (TV) was calculated by the formula ((L×W^2)/2).
The experimental data were calculated and statistically processed by SPSS 19.0. Unless otherwise stated, data were expressed as mean f standard error (Mean±SE), and comparisons between two groups were analyzed by t-test. p<0.05 indicates a significant difference. The solvent 30% PEG400 (containing 70% deionized water, v/v) was used as negative control.

human FGFR1 = molecular target: T1, human FGFR1 (Homo sapiens, UniProt P11362); assay: 33P isotope-labeled kinase activity test, FGFR1; type: biochemical; conditions: ATP 5 μM
T1 construct: purchased Invitrogen PV3146
Method: (§1) The inhibitory activities of the tested compounds on human FGFR1, FGFR4, and c-Met were evaluated by the IC50 values measured using ^33P isotope-labeled kinase activity test (Reaction Biology Corp).
(§2) Buffer condition: 20 mM Hepes (pH 7.5), 10 mM MgCl2, 1 mM EGTA, 0.02% Brij35, 0.02 mg/mL BSA, 0.1 mM Na3VO4, 2 mM DTT, 1% DMSO.
Test procedure: The test compounds were dissolved in DMSO at room temperature and formulated to be 10 mM solutions for later use. The substrates were dissolved in freshly prepared buffer, and kinases to be tested were added and mixed well. The test compounds dissolved in DMSO were added to the above mixed reaction solutions by acoustic technique (Echo 550). […] After incubation for 15 min, ^33P-ATP (activity 0.01 μCi/μL, corresponding concentrations are listed in Table 1) was added to start the reaction. Supplier item number, batch number, as well as the concentration information in the reaction solution of FGFR1, FGFR4, c-Met and substrates thereof are listed in Table 1. […] The kinase activity data are expressed by comparison between the kinase activity in the test compound group and the kinase activity in the blank group (containing DMSO only). IC50 values were obtained by curve fitting with Prism4 software (GraphPad).

human FGFR4 = molecular target: T2, human FGFR4 (Homo sapiens, UniProt P22455); assay: 33P isotope-labeled kinase activity test, FGFR4; type: biochemical; conditions: ATP 100 μM
T2 construct: purchased Invitrogen P3054
Method: as §1, §2
(§3) Test procedure: The test compounds were dissolved in DMSO at room temperature and formulated to be 10 mM solutions for later use. The substrates were dissolved in freshly prepared buffer, and kinases to be tested were added and mixed well. The test compounds dissolved in DMSO were added to the above mixed reaction solutions by acoustic technique (Echo 550). The concentration of the compound in reaction solution was 1 μM, […], 3.91 nM, 0.977 nM, 0.244 nM, 0.061 nM, 0.0153 nM, 0.00381 nM or 10 μM, 2.50 μM, 0.62 μM, 0.156 μM, 39.1 nM, 9.8 nM, 2.4 nM, 0.61 nM, 0.15 nM, 0.038 nM. After incubation for 15 min, ^33P-ATP (activity 0.01 μCi/μL, corresponding concentrations are listed in Table 1) was added to start the reaction. Supplier item number, batch number, as well as the concentration information in the reaction solution of FGFR1, FGFR4, c-Met and substrates thereof are listed in Table 1. […] The kinase activity data are expressed by comparison between the kinase activity in the test compound group and the kinase activity in the blank group (containing DMSO only). IC50 values were obtained by curve fitting with Prism4 software (GraphPad).

human c-Met = molecular target: T3, human c-Met (Homo sapiens, UniProt P08581); assay: 33P isotope-labeled kinase activity test, c-Met; type: biochemical; conditions: ATP 10 μM
T3 construct: purchased Invitrogen PV3143
Method: as §1, §2, §3

T3 sequence (P08581 25-1390): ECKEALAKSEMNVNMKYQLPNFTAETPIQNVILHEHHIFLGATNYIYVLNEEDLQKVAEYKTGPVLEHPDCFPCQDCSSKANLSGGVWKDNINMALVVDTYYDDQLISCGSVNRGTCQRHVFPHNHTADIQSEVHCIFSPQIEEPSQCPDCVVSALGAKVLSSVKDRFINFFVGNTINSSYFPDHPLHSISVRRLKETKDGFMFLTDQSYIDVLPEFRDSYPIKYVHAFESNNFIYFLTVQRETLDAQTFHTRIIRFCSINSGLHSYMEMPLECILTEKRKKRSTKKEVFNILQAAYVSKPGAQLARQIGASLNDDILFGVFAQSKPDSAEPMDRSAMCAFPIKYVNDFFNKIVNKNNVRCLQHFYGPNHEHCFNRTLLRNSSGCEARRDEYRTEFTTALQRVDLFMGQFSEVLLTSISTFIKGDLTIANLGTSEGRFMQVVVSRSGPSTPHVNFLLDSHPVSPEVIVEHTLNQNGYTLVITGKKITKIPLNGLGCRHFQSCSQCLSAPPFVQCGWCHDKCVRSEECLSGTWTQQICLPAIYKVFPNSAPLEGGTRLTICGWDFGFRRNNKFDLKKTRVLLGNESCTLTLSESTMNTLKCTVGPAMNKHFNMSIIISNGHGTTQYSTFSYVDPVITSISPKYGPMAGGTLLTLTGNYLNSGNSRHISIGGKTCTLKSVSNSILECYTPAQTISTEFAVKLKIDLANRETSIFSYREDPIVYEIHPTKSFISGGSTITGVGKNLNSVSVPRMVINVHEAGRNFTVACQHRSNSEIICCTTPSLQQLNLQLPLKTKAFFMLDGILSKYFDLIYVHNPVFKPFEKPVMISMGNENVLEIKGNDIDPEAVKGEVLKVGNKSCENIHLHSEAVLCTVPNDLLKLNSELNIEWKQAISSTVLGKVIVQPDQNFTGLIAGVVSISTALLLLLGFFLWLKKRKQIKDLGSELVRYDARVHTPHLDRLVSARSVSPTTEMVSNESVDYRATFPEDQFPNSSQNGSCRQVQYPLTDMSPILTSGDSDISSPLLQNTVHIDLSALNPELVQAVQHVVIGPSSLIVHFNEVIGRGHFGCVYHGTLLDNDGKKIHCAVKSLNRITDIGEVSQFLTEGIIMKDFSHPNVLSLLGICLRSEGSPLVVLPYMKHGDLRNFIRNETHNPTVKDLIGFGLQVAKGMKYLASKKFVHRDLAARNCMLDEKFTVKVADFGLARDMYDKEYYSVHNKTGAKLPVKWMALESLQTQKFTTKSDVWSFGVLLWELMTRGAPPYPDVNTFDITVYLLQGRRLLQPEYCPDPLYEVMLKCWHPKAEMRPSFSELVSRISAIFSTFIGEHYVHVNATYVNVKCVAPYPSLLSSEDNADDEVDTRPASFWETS
T2 sequence (P22455 22-802): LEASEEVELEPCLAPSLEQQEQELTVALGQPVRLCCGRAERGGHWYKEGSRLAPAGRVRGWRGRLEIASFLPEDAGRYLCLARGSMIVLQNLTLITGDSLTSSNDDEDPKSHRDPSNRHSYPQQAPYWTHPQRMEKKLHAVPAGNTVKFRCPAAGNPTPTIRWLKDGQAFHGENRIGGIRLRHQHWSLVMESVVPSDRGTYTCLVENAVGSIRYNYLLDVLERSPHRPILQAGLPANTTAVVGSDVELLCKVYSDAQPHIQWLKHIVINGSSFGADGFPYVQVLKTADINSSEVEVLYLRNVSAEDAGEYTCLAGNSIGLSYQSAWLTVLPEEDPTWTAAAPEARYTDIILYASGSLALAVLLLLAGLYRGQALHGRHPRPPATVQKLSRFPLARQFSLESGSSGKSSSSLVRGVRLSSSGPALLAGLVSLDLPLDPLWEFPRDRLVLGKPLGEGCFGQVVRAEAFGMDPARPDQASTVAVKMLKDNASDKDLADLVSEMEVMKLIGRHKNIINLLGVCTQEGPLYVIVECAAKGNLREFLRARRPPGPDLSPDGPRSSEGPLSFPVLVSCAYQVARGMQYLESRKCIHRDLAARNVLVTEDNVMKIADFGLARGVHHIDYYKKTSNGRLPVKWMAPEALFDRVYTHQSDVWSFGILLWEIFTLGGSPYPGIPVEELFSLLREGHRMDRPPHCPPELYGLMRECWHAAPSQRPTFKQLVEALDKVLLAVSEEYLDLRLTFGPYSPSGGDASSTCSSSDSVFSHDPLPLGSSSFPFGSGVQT
T1 sequence (P11362 22-822): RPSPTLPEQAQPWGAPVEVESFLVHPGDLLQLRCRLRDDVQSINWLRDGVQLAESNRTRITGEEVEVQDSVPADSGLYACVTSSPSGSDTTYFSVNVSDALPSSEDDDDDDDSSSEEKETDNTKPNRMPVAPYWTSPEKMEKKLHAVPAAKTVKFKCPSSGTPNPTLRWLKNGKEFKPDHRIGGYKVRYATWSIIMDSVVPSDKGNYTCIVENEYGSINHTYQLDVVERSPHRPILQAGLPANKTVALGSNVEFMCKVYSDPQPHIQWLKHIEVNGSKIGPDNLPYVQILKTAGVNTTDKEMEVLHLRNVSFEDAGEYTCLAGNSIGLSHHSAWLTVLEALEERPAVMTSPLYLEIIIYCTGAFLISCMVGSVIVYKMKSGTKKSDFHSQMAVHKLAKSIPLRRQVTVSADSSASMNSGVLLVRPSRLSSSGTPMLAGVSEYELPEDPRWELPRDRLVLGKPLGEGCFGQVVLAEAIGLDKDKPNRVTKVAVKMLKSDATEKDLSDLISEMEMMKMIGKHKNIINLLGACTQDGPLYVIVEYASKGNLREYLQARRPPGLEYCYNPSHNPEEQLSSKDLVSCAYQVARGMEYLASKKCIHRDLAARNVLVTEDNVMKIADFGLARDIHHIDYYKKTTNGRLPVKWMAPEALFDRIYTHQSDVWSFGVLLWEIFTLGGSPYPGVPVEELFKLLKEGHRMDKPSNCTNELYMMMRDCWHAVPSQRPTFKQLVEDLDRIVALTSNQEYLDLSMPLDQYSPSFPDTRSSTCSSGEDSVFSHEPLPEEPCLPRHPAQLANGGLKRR

AUC(0-t) ([1]; CD-1, mouse, PO 10 mg/kg) [µM·h] | bioavailability ([1]; CD-1, mouse) [%] | Cmax ([1]; CD-1, mouse, PO 10 mg/kg) [nM] | Tmax ([1]; CD-1, mouse, PO 10 mg/kg) [h] | AUC(0-t) ([1]; CD-1 nude, mouse, IV 2 mg/kg) [µM·h] | clearance ([1]; CD-1 nude, mouse, IV 2 mg/kg) [mL/min/kg] | half-life ([1]; CD-1 nude, mouse, IV 2 mg/kg) [h] | Vd ([1]; CD-1 nude, mouse, IV 2 mg/kg) [L/kg] | oral bioavailability (in words) [1] | IC50 (human FGFR1) [nM] | IC50 (human FGFR4) [nM] | IC50 (human c-Met) [nM] | Structure (SMILES) | TGI % (the last administration on the 21th day) ([2]; 5 mg/KG BID) [%] | TGI % (the last administration on the 21th day) ([2]; 10 mg/KG QD) [%]
16.6 | 86.6 | 5040 | 1 | 3.79 | 21.2 | 1.1 | 1.7 | high oral bioavailability | – | – | – | COc1cc(OC)c(F)c(Cc2c[nH]c3ncc(-c4cnn(CCO)c4)cc23)c1F [Embodiment 46] | 98 | 80
3.23 | 21.5 | 877 | 1.3 | 3.15 | 25.3 | 1.1 | 2.1 | moderate bioavailability | 0.3 | 1.7 | 6.3 | COc1nc(OC)c(F)c(Cc2c[nH]c3ncc(-c4cnn(CCO)c4)cc23)c1F [Embodiment 48] | – | 77
